Laboratory results taken from patent US20250114462A1, “HYDROPHILIC FUNCTIONALIZED PARTICLES IN THE DELIVERY OF HYDROPHOBIC DRUGS” (NEW JERSEY INSTITUTE OF TECHNOLOGY, priority 2023, published 2025).

Test: In vitro dissolution profile (USP-42 paddle method)
Format: physicochemical
Conditions: for 50% dissolution time (T50): composites with 0.5 to 1.0% of HFP
Experimental: Dissolution measurements were carried out using USP-42 paddle method with Symphony 7100 Distek dissolution instrument. Agilent 8453 model UV-Visible spectrophotometer was used at a wavelength at 295.0 nm for the reference drug Griseofulvin standard absorbance measurements that calibrated to measure the formulation polymer incorporated drugs concentration and dissolution percentage estimation.

An Initial dissolution rate of 74.3 µg/min was found for `COc1ccc(-n2nc(C(N)=O)c3c2C(=O)N(c2ccc(N4CCCCC4=O)cc2)CC3)cc1` [Apixaban (APX), apixaban] in this work.

In the case of `COC1=CC(=O)C[C@@H](C)[C@]12Oc1c(Cl)c(OC)cc(OC)c1C2=O` [Griseofulvin (GF), griseofulvin], the Initial dissolution rate is reported as 110.3 µg/min and the “50% dissolution time (T50)” value is reported as 40.

For `CC(=O)O[C@]1(C(C)=O)CC[C@H]2[C@@H]3C=C(C)C4=CC(=O)CC[C@]4(C)[C@H]3CC[C@@]21C` [Megestrol Acetate (MA), megestrol acetate], the Initial dissolution rate was 84.1 µg/min and the “50% dissolution time (T50)” value was 138.
